Five compounds from paper PMC11844072, “Novel 5,6-dichlorobenzimidazole derivatives as dual BRAFWT and BRAFV600E inhibitors: design, synthesis, anti-cancer activity and molecular dynamics simulations” (BMC Chemistry, 2025) can be followed below.

The subject of experiment [1] is HCC-2998. As to the kind of experiment: NCI 60 single concentration growth inhibition. It counts as cell-based, human. The following applies: Homo sapiens, HCC-2998, Colon cancer, read-out: GI%. As to the method:
(§1) The synthesized dichlorobenzimidazoles 10a–p were assayed for their influence on divers cancer cell lines according to the method presented in the Additional file A.
(§2) 5. Screening of cytotoxic activity against a panel of sixty human tumor cell lines
(§3) The selected compounds by NCI were evaluated for their anticancer activity in a two-stage process. First, these compounds were screened against the full NCI 60 cell lines panel at a single high dose of 10 µM. Then, the output from the single dose screen is reported as a mean graph. […]
(§4) Assay protocol. The human tumor cell lines of the cancer screening panel are grown in RPMI 1640 medium containing 5% fetal bovine serum and 2 mM L-glutamine. For a typical screening experiment, cells are inoculated into 96 well microtiter plates in 100 µL at plating densities ranging from 5000 to 40,000 cells/well depending on the doubling time of individual cell lines. After cell inoculation, the microtiter plates are incubated at 37 °C, 5% CO 2, 95% air and 100% relative humidity for 24 h prior to addition of the experimental drugs.
(§5) After 24 h, two plates of each cell line are fixed in situ with TCA, to represent a measurement of the cell population for each cell line at the time of drug addition (Tz). The experimental drugs are solubilized in dimethyl sulfoxide at 400-fold the desired final maximum test concentration and stored frozen prior to use. At the time of drug addition, an aliquot of frozen concentrate is thawed and diluted to twice the desired final maximum test concentration with complete medium containing 50 µg/mL gentamicin. Additional four, 10-fold or ½ log serial dilutions are made to provide a total of five drug concentrations plus control.
(§6) Aliquots of […] of these different drug dilutions are added to the appropriate microtiter wells already containing […] of medium, resulting in the required final drug concentrations.
(§7) Following drug addition, the plates are incubated for an additional 48 h at 37 °C, 5% CO 2, 95% air, and 100% relative humidity. For adherent cells, the assay is terminated by the addition of cold TCA.
(§8) Cells are fixed in situ by the gentle addition of 50 µL of cold 50% (w/v) TCA (final concentration, 10% TCA) and incubated for 60 min at 4 °C. The supernatant is discarded, and the plates are washed five times with tap water and air dried. Sulforhodamine B (SRB) solution ([…]) at 0.4% (w/v) in 1% acetic acid is added to each well, and plates are incubated for 10 min at room temperature. After staining, unbound dye is removed by washing five times with 1% acetic acid and the plates are air dried. Bound stain is subsequently solubilized with 10 mM trizma base, and the absorbance is read on an automated plate reader at a wavelength of 515 nm. For suspension cells, the methodology is […]
(§9) the same except that the assay is terminated by fixing settled cells at the bottom of the wells by gently adding 50 µl of 80% TCA (final concentration, 16% TCA). Using the seven absorbance measurements [time zero, (Tz), control growth, (C), and test growth in the presence of drug at the five concentration levels (Ti)], the percentage growth is calculated at each of the drug concentrations […]
(§10) Percentage growth inhibition is calculated as: [(Ti Tz)/(C–Tz)] x 100 for concentrations for which Ti>/=Tz and [(Ti-Tz)/Tz] x 100 for concentrations for which Ti < Tz. […]
(§11) Results for each compound were reported as a mean graph of the percent growth of the treated cells when compared to the untreated control cells. There after obtaining the results for one dose assay, analysis of historical Development Therapeutics Programme (DTP) was performed and compounds which satisfies predetermined threshold inhibition criteria is selected for NCI full panel 5 dose assay.

The subject of experiment [2] is U251. Briefly: NCI 60 single concentration growth inhibition. It counts as cell-based, human. The conditions noted are these: Homo sapiens, U-251, U251, CNS cancer, read-out: GI%. As to the method:
as §1, §2, §3, §4, §5, §6, §7, §8, §9, §10, §11

The subject of experiment [3] is HCT-15. Briefly: NCI 60 single concentration growth inhibition. The following applies: Homo sapiens, HCT-15, Colon cancer, read-out: GI%. It counts as cell-based, human. The procedure:
as §1, §2, §3, §4, §5, §6, §7, §8, §9, §10, §11

Experiment [4] deals with OVCAR-4. Briefly: NCI 60 single concentration growth inhibition. It counts as cell-based, human. The following applies: Homo sapiens, OVCAR-4, Ovarian cancer, read-out: GI%. The procedure: as §1, §2, §3, §4, §5, §6, §7, §8, §9, §10, §11
For experiment [5], the system named is HT29. Briefly: NCI 60 single concentration growth inhibition. It counts as cell-based, human. The following applies: Homo sapiens, HT-29, HT29, Colon cancer, read-out: GI%. The procedure:
as §1, §2, §3, §4, §5, §6, §7, §8, §9, §10, §11

Experiment [6] relates to HOP-92. As to the kind of experiment: NCI 60 single concentration growth inhibition. Format: cell-based, human. The conditions noted are these: Homo sapiens, HOP-92, Non-small cell lung cancer, read-out: GI%. As to the method:
as §1, §2, §3, §4, §5, §6, §7, §8, §9, §10, §11

Experiment [7] has as its system SNB-19. Briefly: NCI 60 single concentration growth inhibition. Format: cell-based, human. The conditions noted are these: Homo sapiens, SNB-19, CNS cancer, read-out: GI%. The procedure: as §1, §2, §3, §4, §5, §6, §7, §8, §9, §10, §11
Experiment [8] has as its system LOX IMVIL. As to the kind of experiment: NCI 60 single concentration growth inhibition. Format: cell-based, human. The following applies: Homo sapiens, Melanoma, read-out: GI%. As to the method: as §1, §2, §3, §4, §5, §6, §7, §8, §9, §10, §11
Experiment [9] concerns OVCAR-3. As to the kind of experiment: NCI 60 single concentration growth inhibition. It counts as cell-based, human. The conditions noted are these: Homo sapiens, OVCAR-3, Ovarian cancer, read-out: GI%. The procedure:
as §1, §2, §3, §4, §5, §6, §7, §8, §9, §10, §11

Experiment [10] deals with K-562. As to the kind of experiment: NCI 60 single concentration growth inhibition. Format: cell-based, human. The conditions noted are these: Homo sapiens, K562, K-562, Leukemia, read-out: GI%. The procedure:
as §1, §2, §3, §4, §5, §6, §7, §8, §9, §10, §11

For experiment [11], the system named is NCI-H522. Briefly: NCI 60 single concentration growth inhibition. Format: cell-based, human. The following applies: Homo sapiens, NCI-H522, Non-small cell lung cancer, read-out: GI%. The procedure:
as §1, §2, §3, §4, §5, §6, §7, §8, §9, §10, §11

Experiment [12] concerns NCI/ADR-RES. As to the kind of experiment: NCI 60 single concentration growth inhibition. The conditions noted are these: Homo sapiens, Ovarian cancer, read-out: GI%. Format: cell-based, human. The procedure:
as §1, §2, §3, §4, §5, §6, §7, §8, §9, §10, §11

For experiment [13], the system named is NCI-H460. As to the kind of experiment: NCI 60 single concentration growth inhibition. It counts as cell-based, human. The conditions noted are these: Homo sapiens, NCI-H460, Non-small cell lung cancer, read-out: GI%. The procedure:
as §1, §2, §3, §4, §5, §6, §7, §8, §9, §10, §11

The test system of experiment [14] is DU-145. Briefly: NCI 60 single concentration growth inhibition. The following applies: Homo sapiens, DU-145, Prostate cancer, read-out: GI%. Format: cell-based, human. As to the method: as §1, §2, §3, §4, §5, §6, §7, §8, §9, §10, §11
In experiment [15] the test system is SW-620. Briefly: NCI 60 single concentration growth inhibition. Format: cell-based, human. The following applies: Homo sapiens, SW-620, Colon cancer, read-out: GI%. The procedure: as §1, §2, §3, §4, §5, §6, §7, §8, §9, §10, §11
For experiment [16], the system named is TK-10. Briefly: NCI 60 single concentration growth inhibition. Format: cell-based, human. The conditions noted are these: Homo sapiens, TK-10, Renal cancer, read-out: GI%. As to the method:
as §1, §2, §3, §4, §5, §6, §7, §8, §9, §10, §11

For experiment [17], the system named is COLO 205. Briefly: NCI 60 single concentration growth inhibition. Format: cell-based, human. The following applies: Homo sapiens, COLO 205, Colon cancer, read-out: GI%. As to the method:
as §1, §2, §3, §4, §5, §6, §7, §8, §9, §10, §11

Experiment [18] has as its system NCI 60 cancer cell line panel. Briefly: NCI 60 single concentration growth inhibition, panel mean. Format: cell-based. The conditions noted are these: Homo sapiens, mean over NCI 60 panel, read-out: Mean GI%. As to the method:
as §1, §2, §3
at five different minimal concentrations.
as §4, §5, §6, §7, §8, §9
Percentage growth inhibition is calculated as: [(Ti Tz)/(C–Tz)] x 100 for concentrations for which Ti>/=Tz and [(Ti-Tz)/Tz] x 100 for concentrations for which Ti < Tz.
Three dose response parameters are calculated for each experimental agent. Growth […]
concentration resulting in a 50% reduction in the net protein increase (as measured by SRB staining) in control cells during the drug incubation. The drug concentration resulting in total growth inhibition (TGI) is calculated from Ti = Tz. […]
reduction in the measured protein at the end of the drug treatment as compared to that at the beginning) indicating a net loss of cells following treatment is calculated from [(Ti–Tz)/Tz] x 100 =
_50. Values are calculated for each of these three parameters if the level of activity is reached; […]

With `COc1ccc(-c2nc3cc(Cl)c(Cl)cc3n2CC(=O)NN=Cc2cccc(OC)c2)cc1` [Compound 10c, 2-(5,6-Dichloro-2-(4-methoxyphenyl)-1H-benzo[d]imidazol-1-yl)-N'-(3-methoxybenzylidene)acetohydrazide], the inhibition at 10 µM in experiment [1] worked out at 7.72%; in [2], 26.6%; in experiment [3], 44.2%; in [4], 42.1%; in experiment [5], 5.29%; in experiment [6], 20.6%. Further, the inhibition at 10 µM in experiment [7] came out at 32.4%; in experiment [8], 30.3%; in experiment [9], 14.4%; in experiment [10] it was 46.5%; in [11], 15.1%; in experiment [12], 21.3%. Moreover, the inhibition at 10 µM came to 23.7% in experiment [13]; 23.3% in experiment [14]; 10.2% in experiment [15]; 5.88% in [16]; 8.17% in [17]; 28.1% in experiment [18].
`COc1ccc(C=NNC(=O)Cn2c(-c3ccc(OC)cc3)nc3cc(Cl)c(Cl)cc32)cc1` [Compound 10d, 2-(5,6-Dichloro-2-(4-methoxyphenyl)-1H-benzo[d]imidazol-1-yl)-N'-(4-methoxybenzylidene)acetohydrazide]: the inhibition at 10 µM was 34.9% in [1]; 38.6% in experiment [2]; 62.9% in experiment [3]; 65% in experiment [4]; 37.5% in experiment [5]; 10.9% in [6]. The inhibition at 10 µM came to 50.5% in experiment [7]; 24.7% in experiment [8]; 22.7% in experiment [9]; 58.7% in [10]; 27.9% in experiment [11]; 36% in experiment [12]. Moreover, the inhibition at 10 µM in experiment [13] worked out at 47.2%; in [14] it was 41.2%; in experiment [15] it was 32.3%; in experiment [16] it was 34.9%; in experiment [17] it was 42.7%; in [18], 44.6%.
On to `COc1ccc(-c2nc3cc(Cl)c(Cl)cc3n2CC(=O)NN=Cc2cccc(OCC(=O)O)c2)cc1` [Compound 10e, 2-(3-((2-(2-(5,6-Dichloro-2-(4-methoxyphenyl)-1H-benzo[d]imidazol-1-yl)acetyl)hydrazono)methyl)phenoxy)acetic acid], for which the inhibition at 10 µM in [1], in [2], in experiment [3], in [4], in [5] and in [6] was under 5% each time. For the same compound, the inhibition at 10 µM in experiment [7], in experiment [8], in experiment [9], in [10], in experiment [11] and in experiment [12] was under 5% in each case. Further, the inhibition at 10 µM in experiment [13], in [14], in experiment [15], in experiment [16], in [17] and in experiment [18] was under 5% in each case.
For `COc1ccc(-c2nc3cc(Cl)c(Cl)cc3n2CC(=O)NN=Cc2ccc(OCC(=O)O)cc2)cc1` [Compound 10f, 2-(4-((2-(2-(5,6-Dichloro-2-(4-methoxyphenyl)-1H-benzo[d]imidazol-1-yl)acetyl)hydrazono)methyl)phenoxy)acetic acid], the inhibition at 10 µM in experiment [1] is under 5%; in [2], under 5%; in experiment [3], 6.73%; in experiment [4], under 5%; in experiment [5], under 5%; in experiment [6] it was under 5%. The inhibition at 10 µM in [7] is under 5%; in experiment [8] it was 8.41%; in experiment [9], under 5%; in [10] it was under 5%; in experiment [11], under 5%; in experiment [12] it was under 5%. For the same compound, the inhibition at 10 µM in experiment [13], in experiment [14], in experiment [15], in experiment [16], in experiment [17] and in [18] was under 5% each time.
With `COC(=O)COc1cccc(C=NNC(=O)Cn2c(-c3ccc(OC)cc3)nc3cc(Cl)c(Cl)cc32)c1` [Compound 10g, Methyl-2-(3-((2-(2-(5,6-dichloro-2-(4-methoxyphenyl)-1H-benzo[d]imidazol-1-yl)acetyl)hydrazono)methyl)phenoxy)acetate], the inhibition at 10 µM in experiment [1] is 44%; in experiment [2], under 5%; in experiment [3] it was 21.4%; in experiment [4], under 5%; in experiment [5] it was 51.7%; in experiment [6], 5.5%. Also, the inhibition at 10 µM in experiment [7] is under 5%; in [8], 19.1%; in experiment [9], under 5%; in experiment [10] it was 21.3%; in [11] it was 9.11%; in experiment [12] it was under 5%. The inhibition at 10 µM was under 5% in experiment [13]; 110% in [14]; under 5% in experiment [15]; under 5% in [16]; under 5% in [17]; 14.6% in experiment [18].
